Experimental data reported in patent publication US6362225B1 (priority 1999, dated 2002).

Key:
[1] = cited from earlier work
herpes simplex II = experiment: Lysine nasal spray for herpes outbreaks; assay type: in vivo, human
[2] = tested on: upper respiratory infections settled in the lungs; experiment: Lysine solution by nebulizer directly into the lungs; assay type: in vivo, human; details: one test subject
Source text: Often upper respiratory infections settle in the lungs and can cause prolonged discomfort, coughing and heavy chest congestion.

canker sore = experiment: Lysine solution applied directly to canker sores and cold sores; assay type: in vivo, human
Source text: Another test subject with a long history of canker sore outbreaks reported that once one canker sore appeared several more usually followed within a day or two. These sores were quite painful and often lasted from five to ten days. The subject was given the lysine solution and told to apply it directly to the lesion. […] The application was repeated every three or four hours until the canker sore was completely healed. […] Since this subject has been using the lysine solution the outbreaks of canker sores are infrequent and are healed very quickly.
As shown above, the use of lysine by targeting the infected areas may shorten the duration of the outbreak and may even prevent illnesses such as colds and sore throats if used directly after contact with an infected person or at the onset of symptoms. Essentially the use of the lysine solution or composition in the nose, mouth and/or lungs, or other specific areas of the body may represent a topical application of lysine to the infected area. Thus, the duration of an infection may be considerably lessened by applying lysine to that infected area.

sore throat = experiment: Lysine nasal inhalation or throat spray for sore throat; assay type: in vivo, human; details: one test subject
Source text: A test subject used nasal inhalation of lysine every three hours to treat a sore throat and reported relief after one day.
Another test subject who has suffered from throat infections for many years used the lysine spray directly into the throat at the first sign of soreness on at least four occassions. The treatment was repeated every three to four hours for two days.

cold virus [3] = experiment: Nasal spray of lysine after exposure to persons with severe colds; assay type: in vivo, human; details: nasal spray continued for at least three days after exposure to persons with severe colds
Source text: The administration of lysine in the form of a nasal spray was used by other test subjects after being exposed to persons with severe colds, that is persons who were frequently coughing and sneezing.

cold virus [4] = experiment: Nasal spray of lysine solution in test subjects with colds or flu; assay type: in vivo, human
[5] = ten test subjects, cold virus, […], 3500 mg lysine in 1.5 oz. 0.65% saline, spray twice in each nostril every three hours

For Cl.NCCCC[C@H](N)C(=O)O [lysine, L-lysine monohydrochloride], the Toxic levels ([1]; general statement) is given as “No toxic levels”, the “Adverse side effects of ingested lysine” value ([1]; high doses ingested as tablets) is given as “gastric distress” and the “Effect on herpes simplex II outbreak” value (herpes simplex II; one test subject with twenty year history, nasal spray every three hours for one day) is given as “stopped the outbreak”. For the same molecule, the “Response of genital herpes outbreaks” value (herpes simplex II; one test subject, nasal spray plus lysine tablets, compared with tablets alone) was “responded much faster than with the tablets alone”, the “Prevention of herpes outbreaks” value (herpes simplex II; same test subject, regular use of the nasal spray) was “prevented herpes outbreaks to the point of almost eliminating them altogether” and the “Onset of lessening of lung symptoms” value [2] was “lessened almost immediately”. For the same molecule, the “Time until symptoms cleared up completely” value [2] was “one to three”, the “Secondary canker sore lesions” value (canker sore; one test subject, application repeated every three or four hours) was “no secondary lesions developed” and the “Time until canker sore completely healed” value (canker sore; one test subject, application repeated every three or four hours, sores previously lasted five to ten days) was “three to five”. The “Pain associated with canker sore” value (canker sore; one test subject, solution applied directly to the lesion) was “alleviated as soon as the solution was applied”, the “Healing response of cold sores and canker sores” value (canker sore; solution applied directly, in contrast to ingestion of lysine tablets alone) was “fast healing response” and the “Time to relief of sore throat” value (sore throat; nasal inhalation every three hours) was “one”. For the same molecule, the “Development of full sore throat” value (sore throat; spray directly into the throat at first sign of soreness, every three to four hours for two days, at least four occasions) was “never occurred”, the “Cold symptoms after exposure” value (cold virus [3]) was “never felt cold symptoms at all” and the “Effectiveness of treatment at lengthened intervals” value (cold virus [4]; colds or flu, intervals lengthened to six or more hours, compared with one to four hours) was “considerably less effective”. For the same molecule, the “Number of subjects reporting relief obtained in 1 day” value (cold virus [4]; [5]) was 5, the “Number of subjects reporting relief obtained in 2 days” value (cold virus [4]; [5]) was 3 and the “Number of subjects reporting relief obtained in 3 days” value (cold virus [4]; [5]) was 2.
